Where “and” joins values, the source holds several entries; their conditions need not be identical. Equal values may be shown once.
tested on: mice; experiment: acetic acid induced writhing test (analgesic effects in mice, subcutaneous); format: in vivo, mice (male CD-1); settings: Mus musculus, sc, acetic acid i.p. 15 min post drug, writhes counted over 20 min, read-out: ED50 (dose required to reduce the number of writhes by 50%)
Description: Analgesic effects of the test compounds were determined in mice by use of the acetic acid induced writhing test described by B. A. Whittle, Brit. J. Pharmacol., 22:246 (1964). In this test, at least 3 groups of 5 male CD-1 mice each were given subcutaneous doses of the test drug dissolved in distilled water. In all cases, 0.4 ml of a 0.5% v/v acetic acid in distilled water solution was administered intraperitoneally 15 min. post drug. The number of writhes in a 20 min. interval beginning 5 min. after the acetic acid injection were determined and compared with the number of writhes in a control group which had received only acetic acid.
Percent inhibition of writhing was calculated as: [formula]
The ED50 dose, i.e., the dose required to reduce the number of writhes by 50%, was determined graphically from a plot of % inhibition as a probit verus log dose. Confidence limits of 95% were calculated on the basis of those results falling in the range 16-84% inhibition. See Lichtfield, J. T. and Wilcoxon, F., J. Pharmacol. Exp. Ther., 96, 99-113 (1949).

SMILES | ED50
COc1ccc2c3c1O[C@H]1[C@@H](O)[C@](C)(CCCCc4ccccc4)C[C@H]4[C@@H](C2)N(CC2CC2)CC[C@@]341 [BPf] | 0.5 µmol/kg and 0.26 mg/kg
COc1ccc2c3c1O[C@H]1C(=O)[C@](C)(CCCCc4ccccc4)C[C@H]4[C@@H](C2)N(CC2CC2)CC[C@]314 [CPf] | 2 µmol/kg and 1.1 mg/kg
C[C@@]1(CCc2ccccc2)C[C@H]2[C@H]3Cc4ccc(O)c5c4[C@@]2(CCN3CC2CCC2)[C@@H](O5)C1=O [DBd] | 0.04 µmol/kg and 0.021 mg/kg
COc1ccc2c3c1O[C@H]1C(=O)[C@](C)(CCc4ccccc4)C[C@H]4[C@@H](C2)N(CC2CCC2)CC[C@]314 [CBd] | 0.01 µmol/kg and 0.011 mg/kg
COc1ccc2c3c1O[C@H]1C(=O)[C@](C)(CCCCc4ccccc4)C[C@H]4[C@@H](C2)N(C)CC[C@]314 [CMf, 7α,17-Dimethyl-4,5α-epoxy-3-methoxy-7β-(4-phenylbutyl)morphinan-6-one] | 0.023 µmol/kg and 0.011 mg/kg
COc1ccc2c3c1O[C@H]1[C@@H](O)[C@](C)(CCCCc4ccccc4)C[C@H]4[C@@H](C2)N(CC2CCC2)CC[C@@]341 [BBf] | 11.3 µmol/kg and 6.1 mg/kg
C[C@@]1(CCCCc2ccccc2)C[C@H]2[C@H]3Cc4ccc(O)c5c4[C@@]2(CCN3CC2CC2)[C@@H](O5)C1=O [DPf] | 0.11 µmol/kg and 0.07 mg/kg
CN1CC[C@]23c4c5ccc(O)c4O[C@H]2C(=O)[C@](C)(CCCCc2ccccc2)C[C@H]3[C@H]1C5 [DMf, 7α,17-Dimethyl-4,5α-epoxy-3-hydroxy-7β-(4-phenylbutyl)morphinan-6-one] | 0.01 µmol/kg and 0.0048 mg/kg
C[C@@]1(CCCCc2ccccc2)C[C@H]2[C@H]3Cc4ccc(O)c5c4[C@@]2(CCN3CC2CCC2)[C@@H](O5)C1=O [DBf] | 0.17 µmol/kg and 0.08 mg/kg
COc1ccc2c3c1O[C@H]1[C@@H](O)[C@](C)(CCc4ccccc4)C[C@H]4[C@@H](C2)N(CC2CCC2)CC[C@@]341 [BBd] | 1 µmol/kg and 0.51 mg/kg
COc1ccc2c3c1O[C@H]1[C@@H](O)[C@](C)(CCCCc4ccccc4)C[C@H]4[C@@H](C2)N(C)CC[C@@]341 [BMf, 7α,17-Dimethyl-4,5α-epoxy-3-methoxy-7β-(4-phenylbutyl)morphinan-6α-ol] | 0.049 µmol/kg and 0.023 mg/kg
COc1ccc2c3c1O[C@H]1C(=O)[C@](C)(CCCCc4ccccc4)C[C@H]4[C@@H](C2)N(CC2CCC2)CC[C@]314 [CBf] | 5.6 µmol/kg and 2.8 mg/kg
